Laboratory results as given in patent US10835170B2, “Methods for detecting neuronal oscillation in the spinal cord associated with pain and diseases or disorders of the nervous system” (Rhode Island Hospital, priority 2015, dated 2020).

Test system: spinal cord dorsal horn (L4) neuronal oscillation
Experiment: Spinal cord dorsal horn LFP/PSD recording after intradermal capsaicin injection (model of acute pain)
Type: in vivo, rat
Conditions: anesthetized rats, FIG. 1B
Procedure: FIG. 1A is a schematic showing electrode placement in the spinal cord dorsal horn (L4) for the recoding of local field potential (LFP) from anesthetized rats (n=3 rats/group).
Experiments were conducted on anesthetized Sprague Dawley rats (200-250 g). […] LFP was sampled at a high frequency (25,000 Hz) and down-sampled offline to 250 Hz.
Natural sensory stimuli (e.g. brush and pinch) and intradermal injections of capsaicin were applied to the receptive field in the hindpaw corresponding to the recording site in the spinal cord. […] PSD plots the distribution of the power amplitude of a waveform as a function of frequency. Spontaneous oscillation in the spinal cord dorsal horn was enhanced compared to baseline LFP recording in response to capsaicin injection in the ipsilateral foot within physiologically relevant frequency bands, e.g., theta and alpha, oscillated at baseline. […] Thus, oscillation was normalized with systemic administration of an analgesic compound.

Structure (SMILES)	Spontaneous oscillation in the spinal cord dorsal horn (PSD) compared to baseline LFP recording (intradermal 5% capsaicin injection in the ipsilateral foot, theta and alpha bands)	Effect on capsaicin-enhanced PSD normalized to baseline (ibuprofen 400 mg/Kg intraperitoneally, after intradermal 5% capsaicin, n=3 rats/group)
COc1cc(CNC(=O)CCCC/C=C/C(C)C)ccc1O [capsaicin]	enhanced	
CC(C)Cc1ccc(C(C)C(=O)O)cc1 (centres unmarked) [ibuprofen]		mitigation of the enhanced PSD
